Series [1] relates to Leishmania amazonensis promastigotes. The experiment in a line: microbe, parasite or virus in culture. The series is classed as cell-based. The following applies: for SI (CC50/EC50), promastigotes: CC50 J774A.1 / EC50 promastigotes; for EC50: Leishmania amazonensis. The method, then: (§1) Cells - Leishmania (L.) amazonensis (MHOM/BR/75/Josefa) and green fluorescent protein (GFP)-labelled L. amazonensis (IFLA/BR/67/PH8) reference strains in their promastigote form were grown in 24-well microtiter plates containing 2 mL of Grace’s insect medium supplemented with 20% heat-inactivated FCS, 2 mM L-glutamine, 100 U/mL penicillin, and 100 µg/mL streptomycin, as previously described.[11] ^, [12] The promastigotes were collected for the experiments when the highest proportion of infective metacyclics was reached (6th day of culture). The J774.A1 murine macrophage cell line was obtained from the cell bank of Rio de Janeiro (NCE/UFRJ). Macrophages were cultured in RPMI-1640 medium supplemented with 10% FCS, 2 mM L-glutamine, 100 U/mL penicillin, and 100 μg/mL streptomycin at 36.5 °C in a humidified incubator containing 5% CO2.
(§2) In vitro assays of antileishmanial activity and macrophage cytotoxicity - Parasites at different cell concentrations (5 x 10^6, 1 x 10^7, 1 x 10^8, and 1 x 10^9 cells/mL), or J774.A1 macrophages at 1 x 10^6 cells/mL, were treated with increasing concentrations of MIL or its analogues, TC387, TC388, and TC437 (Fig. 1), which were initially diluted in an ethanol/DMSO mixture (1:1, v/v) at 25 or 250 mg/mL and then diluted in culture medium supplemented with 10% FCS. Promastigote or macrophage samples (100 µL) containing six different concentrations of the compounds (5-160 μM for promastigotes and 200-6,400 μM for macrophages) were prepared in 96-well microtiter plates and incubated for 24 h at 26 °C for promastigotes or 36.5 °C for macrophages. Cell viability was quantified by measuring the reduction of MTT to formazan by mitochondrial reductases. Formazan absorbance was read on the enzyme-linked immunosorbent assay (ELISA) reader at 550 nm, and the half maximal effective concentration (EC50) or half-maximal cytotoxic concentration (CC50) values were determined based on the best fit of the sigmoidal curve on the absorbance data versus the compound concentrations.

The nature of series [2]: Macrophage cytotoxicity (MTT cell viability). Type of series: cell-based, murine. The settings on record: mouse, J774.A1 macrophages, J774A.1 cells. As for the experimental part:
as §1, §2

Series [3] deals with GFP-labelled L. amazonensis amastigotes within J774.A1 macrophages. The experiment in a line: microbe, parasite or virus in culture. The series is classed as cell-based, Leishmania amazonensis. The following applies: for Minimum concentration required to significantly reduce the percentage of macrophages infected with GFP-expressing amastigotes / Minimum concentration required to significantly decrease the mean fluorescence intensity: 24 h of treatment; for Minimum concentration required to significantly reduce the percentage of macrophages infected with GFP-expressing amastigotes: % GFP+ cells; for Minimum concentration required to significantly decrease the mean fluorescence intensity: MFI; for SI (CC50/EC50), amastigotes: CC50 J774A.1 / EC50 amastigotes; for EC50: Leishmania amazonensis, intracellular amastigotes in J774.A1, 24 h treatment, % infected cells, read-out: EC50 ± SD, amastigotes. The method, then: J774.A1 macrophage infection - GFP-labelled L. amazonensis was cultivated in Grace’s insect medium supplemented as described above. The GFP-labelled parasites were selected using 30 μg/mL hygromycin B.[21] J774.A1 macrophages were cultured in RPMI-1640 medium supplemented with 10% FCS, 2 mM L-glutamine, 11 mM sodium bicarbonate, 100 U/mL penicillin, and 100 µg/mL streptomycin. A sample with 4 x 10^6 cells/mL was infected with GFP-L. amazonensis (five parasites/cell) from six-day cultures for 24 h. Following infection, the cells were washed with 1x phosphate-buffered saline (PBS) to remove non-internalised parasites and cultured for an additional 24 h in the presence of MIL or its analogues at different concentrations (7.5-240 μM).
After cooling to ~4 °C, samples were collected by mechanical harvesting of adherent cells, washed twice with 1x PBS, and fixed with 1% paraformaldehyde for flow cytometry analysis using a BD Accuri™ C6 Flow Cytometry instrument (BD Bioscience, San Jose, CA, USA). Macrophages were selected by forward versus side scatter (FSC vs SSC). The data were analysed using FCS Express software (De Novo Software^TM, Glendale, CA, USA). The percentage of cells expressing GFP^+ (% infected cells) and mean fluorescence intensity (estimated amount of internalised parasites) were evaluated. The mean EC50 values were determined based on the best-fit sigmoidal curve plotted for infection percentage versus compound concentration, considering the maximum and minimum percentages of infected cells.

The subject of series [4] is plasma membranes of Leishmania amazonensis promastigotes. The experiment in a line: Best fit of eq. 3 to EC50 versus cell concentration (biophysical parameters). Type of series: cell-based. The following applies: for EC50: Leishmania amazonensis, read-out: cw50, concentration in the aqueous phase that inhibits parasite growth by half; for cm50, concentration in the membrane that inhibits parasite growth by half: from KM/W and cw50. An excerpt: In cell suspension assays, the concentration of lipophilic compounds within the membrane can exceed that in the aqueous medium by over 10,000-fold (Log KM/W > 4). In a well-diluted cell suspension, the quantity of compound associated with the membrane can be negligible due to the relatively small membrane volume; consequently, the compound predominantly resides in the aqueous phase, rendering its EC50 value effectively equivalent to its concentration in that phase, denoted as cw50. However, as cell concentration increases, the enhanced membrane volume results in a significant elevation of the EC50 compared to cw50. The equation that describes the variation of MIL EC50 values in relation to cell concentration in the assay has been derived and is expressed as follows:[10] ^, [11]
EC50=[(Vmc. cc)^-1+ KM/W/ (Vmc . cc)^-1+1)] cw50 (3)
Where Vmc is the estimated cell membrane volume for an L. amazonensis promastigote, previously estimated as 8.17 x 10^-13 mL,[11] and cc is the number of cells per mL. The parameters KM/W and cw50 are covariant in eq. 3, and their values can be determined as best-fit parameters of eq. For very dilute samples, the plasma membrane content is small, and the EC50 and cw50 values are practically the same; assuming in eq. 3 that (Vmc . cc)^-1 >> KM/W, the EC50 = ~cw50. For high concentrations of cells, a remarkable amount of the compound goes to the membrane, and the EC50 value is much higher than the cw50 value. The cm50 value can also be determined from the […] relationship.

In series [5] the test system is L. amazonensis promastigotes. Details: method as in Scariot et al. 13. The following applies: ref Scariot et al. 13; cited from earlier work.
Series [6] concerns amastigotes internalised within J774.A1 macrophages. Set-up: method as in Scariot et al. 13. The settings on record: ref Scariot et al. 13; cited from earlier work.
A short description of series [7]: Haemolytic potential in whole blood. Type of series: cell-based, human. The following applies: human, whole blood reconstituted from plasma and blood cells, 24 h at 7 °C, read-out: Whole blood - % haemolysis. As for the experimental part:
(§3) Haemolytic potential in whole blood and PBS - Blood was collected from a university blood bank, adhering to an approved protocol by the Ethics Committee for Human and Animal Medical Research at Hospital das Clínicas, Universidade Federal de Goiás (CAAE: 81316417.1.0000.5078). To evaluate the haemolytic potential of MIL and its analogues (TC387, TC388, and TC437) in whole blood, plasma was separated by centrifugation at 1800 × g for 10 min at 4 °C. Next, 58 µL of plasma samples containing different concentrations of the compounds were prepared (in this case the compounds were diluted directly in blood plasma to final concentrations in the range of 2.5-12.5 mM), and 42 µL of the blood cells (100%) were added to each sample to reconstitute the whole blood. Samples were incubated for 24 h at 7 ± 1 °C, and several agitations were made in this period. After incubation, 1.4 mL PBS was added to each sample, and the tubes were centrifuged (3500 x g for 10 min). The percentage of haemolysis was determined based on the absorbance of haemoglobin in the supernatant at 540 nm relative to the sample without treatment (control). The compound concentration required for 50% haemolysis (HC50) was calculated by fitting the percentage of haemolysis versus compound concentration data to a sigmoidal curve.

A further series has as its system whole blood. The experiment in a line: Haemolytic potential in whole blood. The series is classed as cell-based, human. The following applies: 7.5 mM, 24 h at 7 °C. As for the experimental part:
as §3

A short description of series [8]: Haemolytic potential in PBS. Type of series: cell-based. The following applies: human, washed erythrocytes in PBS, haematocrit 2%, 2 h at 36.5 °C, read-out: Erythrocytes in PBS - % haemolysis; for hemolysis at 2 h, 6.6 mM: 6.6 mM (22 times 300 µM). As for the experimental part: To assess the haemolytic potential in PBS, blood was initially diluted threefold in PBS and centrifuged at 800 × g for 10 min at 4 °C. Plasma and white blood cells were removed, and the remaining cells were resuspended in PBS. Erythrocytes were washed twice in PBS, discarding the supernatant after centrifugation. Erythrocytes were then added to a micellar suspension of the compounds at various concentrations in PBS (0.3-10 mM), achieving a final haematocrit of 2%. Samples were incubated for 2 h at 36.5 ± 1 °C, and haemolysis percentages and HC50 values were determined as described above.

Setting [9] is: 24 h, read-out: EC50 ± SD, promastigotes, 24 h at 26 °C, MTT.
Setting [10] is: best-fit parameter of eq. 3, equivalent to EC50 for diluted samples.

Here are results for four molecules from publication PMC12113339, “Miltefosine analogues with comparable antileishmanial activity and significantly reduced macrophage cytotoxicity” (Memórias do Instituto Oswaldo Cruz, 2025).

Like-named read-outs stand apart in the source and are kept apart here.

As usually defined, the CC50 is the concentration at which the toxic effect on the cells reaches its halfway point. By IC50 is commonly meant the concentration that gives 50% inhibition.

Take `CCCCCCCCCCCCCCCCOP(=O)([O-])OCC[N+](C)(C)C` [MIL, hexadecylphosphocholine, reference compound]: the “SI (CC50/EC50), promastigotes” value is “around 6” in series [1] and 6 in series [1] (listed as Miltefosine). Moreover, the EC50 is 13 ± 3 µM in series [1] (setting [9]); around 13 µM in series [1] (read-out: EC50, promastigotes, cell concentration 1 x 10^7 parasites/mL); around 660 µM in [1] (read-out: EC50, promastigotes, cell concentration 1 x 10^9 parasites/mL); 17 ± 3 µM in series [3]; 9.4 ± 1.2 µM in [4] (setting [10]). Moreover, the midpoint of cytotoxicity in [2], the CC50 at 24 h, lay at 77 ± 23 µM. The “Minimum concentration required to significantly reduce the percentage of macrophages infected with GFP-expressing amastigotes” value in series [3] was determined as 15 µM. In addition, in series [3], the “Minimum concentration required to significantly decrease the mean fluorescence intensity” value was 15 µM. Also, the “SI (CC50/EC50), amastigotes” value in series [3] stood at 5. Further, in [4], the “cm50, concentration in the membrane that inhibits parasite growth by half” value is on record as 0.81 ± 0.07 (B) M. The 50% inhibitory concentration (IC50) in series [5] was 21 µM; in series [6], 2 µM.
Consider `COc1cccc(CCCCCCCCOP(=O)([O-])OCC[N+](C)(C)C)c1` [TC387], for which the “SI (CC50/EC50), promastigotes” value in [1] came to 34. Also, the EC50 in [1] (setting [9]) amounted to 27 ± 9 µM. The molecule further yielded a CC50 at 24 h in series [2] of 956 ± 277 µM. Further, in [3], the “Minimum concentration required to significantly reduce the percentage of macrophages infected with GFP-expressing amastigotes” value is on record as 7.5 µM; the “Minimum concentration required to significantly decrease the mean fluorescence intensity” value amounted to 7.5 µM; the “SI (CC50/EC50), amastigotes” value amounted to 80; the EC50 worked out at 12 ± 3 µM. In [7], the hemolysis at 24 h, 7.5 mM amounted to 20.5% and the hemolysis at 24 h, 10 mM was determined as 75.3%. The “Whole blood - % haemolysis” value in the series with whole blood is recorded as 22.5 ± 3.7%. In series [8], the hemolysis at 2 h, 3.3 mM was 26.2%; the hemolysis at 2 h, 6.6 mM was below 50%; the hemolysis at 2 h, 10 mM is 60.4%. The EC50 in [4] (setting [10]) was found to be 27.2 ± 2.9 µM. Also, the “cm50, concentration in the membrane that inhibits parasite growth by half” value in series [4] is reported as 0.53 ± 0.09 (A) M.
With `COC(=O)c1c(CCCCCCCCOP(=O)([O-])OCC[N+](C)(C)C)cccc1OC` [TC388], the “SI (CC50/EC50), promastigotes” value in series [1] worked out at 42. The EC50 in [1] (setting [9]) was found to be 39 ± 11 µM. For the same molecule, the CC50 at 24 h in series [2] was 1630 ± 404 µM. Besides, in series [3], the “Minimum concentration required to significantly reduce the percentage of macrophages infected with GFP-expressing amastigotes” value is 7.5 µM, the “Minimum concentration required to significantly decrease the mean fluorescence intensity” value came to 7.5 µM and the EC50 worked out at 10 ± 2 µM. The hemolysis at 24 h, 10 mM in series [7] amounted to 14.5%. For the same molecule, the hemolysis at 24 h, 12.5 mM in [7] (12.5 mM) turned out to be 24.2 ± 6.4%. Also, in series [8], the hemolysis at 2 h, 3.3 mM turned out to be 8.5% and the hemolysis at 2 h, 10 mM was 25.3%. In addition, the EC50 in series [4] (setting [10]) was 38.9 ± 3.8 µM. Besides, in series [4], the “cm50, concentration in the membrane that inhibits parasite growth by half” value was 0.50 ± 0.13 (A) M.
For the molecule `COc1cc(CCCCCCCCOP(=O)([O-])OCC[N+](C)(C)C)cc(OC)c1` [TC437], the “SI (CC50/EC50), promastigotes” value in [1] stood at 29. Besides, the EC50 in series [1] (setting [9]) turned out to be 24 ± 7 µM. In [2], this molecule gave a CC50 at 24 h of 692 ± 212 µM. Also, in series [3], the “Minimum concentration required to significantly reduce the percentage of macrophages infected with GFP-expressing amastigotes” value is 15 µM; the “Minimum concentration required to significantly decrease the mean fluorescence intensity” value was 7.5 µM; the “SI (CC50/EC50), amastigotes” value turned out to be 43; the EC50 is 16 ± 3 µM. Besides, in [7], the hemolysis at 24 h, 7.5 mM stood at 40.6 ± 7.4% and the hemolysis at 24 h, 10 mM was determined as 92.5%. In series [8], the hemolysis at 2 h, 3.3 mM was 29.8%; the hemolysis at 2 h, 6.6 mM is below 50%; the hemolysis at 2 h, 10 mM was determined as 65.4%. In series [4], the EC50 came out at 22.8 ± 3.7 µM and the “cm50, concentration in the membrane that inhibits parasite growth by half” value is 0.56 ± 0.11 (A) M.
